According to US20240269139A1, “COMPOUNDS FOR TARGETED PROTEIN DEGRADATION OF KINASES” (DANA-FARBER CANCER INSTITUTE, INC., priority 2020, published 2024):
Like-named read-outs stand apart in the source and are kept apart here.

Experiments:
Format in all cases: cell-based
[1] = molecular target: T1, protein kinases (human kinome) (Homo sapiens, UniProt O14965)
T1 sequence (O14965 1-403): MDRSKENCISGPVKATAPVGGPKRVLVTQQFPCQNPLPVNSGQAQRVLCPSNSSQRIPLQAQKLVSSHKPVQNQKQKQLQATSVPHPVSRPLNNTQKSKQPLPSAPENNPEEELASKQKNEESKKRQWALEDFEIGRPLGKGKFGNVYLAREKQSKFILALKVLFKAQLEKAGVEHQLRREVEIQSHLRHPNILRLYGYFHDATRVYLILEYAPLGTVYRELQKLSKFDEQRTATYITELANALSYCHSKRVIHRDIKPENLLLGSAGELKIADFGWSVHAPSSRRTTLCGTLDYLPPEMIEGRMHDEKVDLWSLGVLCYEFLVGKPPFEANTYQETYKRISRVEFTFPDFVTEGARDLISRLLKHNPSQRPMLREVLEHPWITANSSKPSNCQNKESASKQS
Source text: (§1) Although development of targeted protein degraders requires a POI binder, among already-liganded proteins such as kinases, it was hypothesized that different targets would have a different propensity for current approaches to degrader-mediated destruction, which was termed ‘degradability’. […] It was rationalized that the probability of identifying the same kinase as a false positive in multiple treatments is low, therefore this analysis served to also assess the robustness of our data and subsequent interpretations. […] Overall, 62 protein kinases were degraded in more than 10 independent treatments, and remarkably, 9 of these (CDK4, AURKA, FER, WEE1, BLK. LIMK2, CDK6, GAK, LIMK1) were each degraded in at least 40 of the 154 independent treatments, emphasizing their predisposition to induced degradation (FIG. 1G; Appendix I).
(§2) Next, the frequency of degradation assessment was corrected for over-representation of molecules in the full dataset by omitting replicate profiling of compounds under different experimental conditions, to remove any bias. […] Unsurprisingly, the top degradable kinases mirror those from the previous analysis (CDK4, AURKA, FER, WEE1, BLK), confirming that in sufficiently large datasets, even with over-representation of certain molecules, frequency of degradation is a good measure of general tractability.

[2] = molecular target: protein kinases (human kinome) (Homo sapiens, UniProt P49840); conditions: GSK3A P49840; experiment wp056
Source text: as §1, §2

[3] = molecular target: protein kinases (human kinome) (Homo sapiens, UniProt Q2M2I8)
Chain of protein kinases (human kinome) (Homo sapiens, UniProt Q2M2I8) (Q2M2I8 whole entry): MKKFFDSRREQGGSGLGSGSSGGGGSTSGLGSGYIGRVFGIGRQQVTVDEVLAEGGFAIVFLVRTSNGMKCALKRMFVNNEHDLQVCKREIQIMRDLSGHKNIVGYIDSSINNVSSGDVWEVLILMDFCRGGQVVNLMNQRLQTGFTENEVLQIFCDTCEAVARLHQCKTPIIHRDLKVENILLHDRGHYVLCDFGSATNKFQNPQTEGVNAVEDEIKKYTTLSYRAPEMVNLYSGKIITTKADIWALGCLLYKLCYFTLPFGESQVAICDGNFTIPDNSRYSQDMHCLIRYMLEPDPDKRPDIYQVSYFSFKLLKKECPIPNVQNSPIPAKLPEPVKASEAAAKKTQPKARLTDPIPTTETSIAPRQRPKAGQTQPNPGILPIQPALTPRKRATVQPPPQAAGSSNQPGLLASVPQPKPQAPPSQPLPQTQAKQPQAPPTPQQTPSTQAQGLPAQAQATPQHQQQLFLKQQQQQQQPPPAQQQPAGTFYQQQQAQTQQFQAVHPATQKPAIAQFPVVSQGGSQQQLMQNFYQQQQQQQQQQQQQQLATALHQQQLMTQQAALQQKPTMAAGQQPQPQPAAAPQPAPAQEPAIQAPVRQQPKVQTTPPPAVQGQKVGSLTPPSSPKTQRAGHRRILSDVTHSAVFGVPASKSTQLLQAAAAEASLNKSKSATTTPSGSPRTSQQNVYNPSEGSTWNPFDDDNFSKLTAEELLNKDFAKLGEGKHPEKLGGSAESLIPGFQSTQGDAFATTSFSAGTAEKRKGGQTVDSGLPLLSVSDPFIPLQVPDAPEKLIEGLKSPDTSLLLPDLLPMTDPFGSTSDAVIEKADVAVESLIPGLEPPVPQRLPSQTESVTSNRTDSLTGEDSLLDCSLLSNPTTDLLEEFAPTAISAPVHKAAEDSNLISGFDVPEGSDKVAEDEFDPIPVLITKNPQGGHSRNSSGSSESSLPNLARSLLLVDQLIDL
Source text: as §1, §2

[4] = molecular target: protein kinases (human kinome) (Homo sapiens, UniProt Q9NSY1); conditions: BMP2K Q9NSY1; experiment wp056
Source text: as §1, §2

[5] = test system: protein kinases (human kinome); conditions: for logFC GSK3B: experiment wp056; for logFC CSNK1D: experiment wp114; for logFC: CDK9 (P50750-2) protein abundance, degrader vs DMSO, down
Source text: as §1, §2

[6] = molecular target: protein kinases (human kinome) (Homo sapiens, UniProt Q8TDR2); conditions: experiment wp114
Source text: as §1, §2

[7] = molecular target: protein kinases (human kinome) (Homo sapiens, UniProt P16591); conditions: for logFC of FER (P16591-1): down; for logFC of FER: FER P16591-1
Chain of protein kinases (human kinome) (Homo sapiens, UniProt P16591) (P16591 whole entry): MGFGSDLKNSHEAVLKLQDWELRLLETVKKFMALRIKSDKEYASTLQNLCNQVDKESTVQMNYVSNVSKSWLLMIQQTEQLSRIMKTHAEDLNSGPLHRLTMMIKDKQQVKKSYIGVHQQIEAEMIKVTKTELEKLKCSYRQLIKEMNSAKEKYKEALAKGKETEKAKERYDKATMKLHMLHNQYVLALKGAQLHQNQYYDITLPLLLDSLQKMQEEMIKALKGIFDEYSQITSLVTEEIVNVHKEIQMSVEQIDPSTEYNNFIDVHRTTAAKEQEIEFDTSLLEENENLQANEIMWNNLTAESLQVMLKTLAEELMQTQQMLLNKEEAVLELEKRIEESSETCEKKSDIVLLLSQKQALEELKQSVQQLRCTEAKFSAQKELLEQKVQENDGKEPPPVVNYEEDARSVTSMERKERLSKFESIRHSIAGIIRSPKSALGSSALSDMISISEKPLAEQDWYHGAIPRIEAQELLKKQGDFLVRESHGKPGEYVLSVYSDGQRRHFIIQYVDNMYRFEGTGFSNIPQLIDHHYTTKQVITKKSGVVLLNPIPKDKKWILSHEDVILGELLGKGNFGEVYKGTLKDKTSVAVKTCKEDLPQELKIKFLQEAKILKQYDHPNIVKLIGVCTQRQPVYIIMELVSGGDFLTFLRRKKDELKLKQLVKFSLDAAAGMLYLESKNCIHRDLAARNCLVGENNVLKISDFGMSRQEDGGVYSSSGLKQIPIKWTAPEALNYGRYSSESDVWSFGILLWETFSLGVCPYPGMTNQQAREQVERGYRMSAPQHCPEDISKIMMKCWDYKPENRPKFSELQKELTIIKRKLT
Source text: as §1, §2

[8] = molecular target: protein kinases (human kinome) (Homo sapiens, UniProt Q05397); conditions: experiment wp011
Source text: as §1, §2

[9] = molecular target: protein kinases (human kinome) (Homo sapiens, UniProt P06493); conditions: CDK1 P06493; experiment wp146
Source text: as §1, §2

[10] = molecular target: protein kinases (human kinome) (Homo sapiens, UniProt P24941)
Source text: as §1, §2

[11] = molecular target: protein kinases (human kinome) (Homo sapiens, UniProt P45984); conditions: MAPK9 P45984-1; experiment wp146
Chain of protein kinases (human kinome) (Homo sapiens, UniProt P45984) (P45984 whole entry): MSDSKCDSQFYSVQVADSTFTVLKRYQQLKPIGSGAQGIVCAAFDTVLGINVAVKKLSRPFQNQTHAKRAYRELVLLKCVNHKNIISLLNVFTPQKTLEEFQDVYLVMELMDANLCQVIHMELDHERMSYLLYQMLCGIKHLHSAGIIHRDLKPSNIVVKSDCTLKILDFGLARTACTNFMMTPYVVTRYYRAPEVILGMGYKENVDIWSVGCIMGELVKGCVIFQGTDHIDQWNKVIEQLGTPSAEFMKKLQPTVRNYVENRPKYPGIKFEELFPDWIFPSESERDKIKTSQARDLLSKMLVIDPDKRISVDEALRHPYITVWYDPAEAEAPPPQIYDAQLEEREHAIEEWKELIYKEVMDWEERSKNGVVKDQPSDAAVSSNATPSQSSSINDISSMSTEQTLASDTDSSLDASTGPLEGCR
Source text: as §1, §2

[12] = molecular target: protein kinases (human kinome) (Homo sapiens, UniProt P50613); conditions: for logFC: CDK7 (P50613) protein abundance, degrader vs DMSO, down; for logFC CDK7: CDK7 P50613
Chain of protein kinases (human kinome) (Homo sapiens, UniProt P50613) (P50613 whole entry): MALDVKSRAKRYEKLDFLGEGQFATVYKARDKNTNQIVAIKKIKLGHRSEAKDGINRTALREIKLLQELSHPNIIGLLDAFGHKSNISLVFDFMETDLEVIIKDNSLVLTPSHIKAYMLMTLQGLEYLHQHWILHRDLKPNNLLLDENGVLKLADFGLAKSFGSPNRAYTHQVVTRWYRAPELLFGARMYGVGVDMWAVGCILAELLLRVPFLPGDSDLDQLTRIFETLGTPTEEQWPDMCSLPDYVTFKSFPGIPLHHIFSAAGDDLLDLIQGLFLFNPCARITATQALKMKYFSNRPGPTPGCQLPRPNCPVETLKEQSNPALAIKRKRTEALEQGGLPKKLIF
Source text: as §1, §2

[13] = molecular target: protein kinases (human kinome) (Homo sapiens, UniProt Q00535)
Chain of protein kinases (human kinome) (Homo sapiens, UniProt Q00535) (Q00535 whole entry): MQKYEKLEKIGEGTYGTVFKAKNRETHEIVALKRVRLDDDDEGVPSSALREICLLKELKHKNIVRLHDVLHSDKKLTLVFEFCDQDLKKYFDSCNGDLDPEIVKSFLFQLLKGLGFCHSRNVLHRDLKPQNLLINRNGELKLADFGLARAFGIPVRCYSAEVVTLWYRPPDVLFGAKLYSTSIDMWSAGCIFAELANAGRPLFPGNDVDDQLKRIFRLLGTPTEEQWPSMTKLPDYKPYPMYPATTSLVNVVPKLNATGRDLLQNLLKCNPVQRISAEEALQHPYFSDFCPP
Source text: as §1, §2

[14] = molecular target: protein kinases (human kinome) (Homo sapiens, UniProt Q00537); conditions: for logFC of CDK17: Accession Q00537; for logFC CDK17 (Q00537): direction of change down
Chain of protein kinases (human kinome) (Homo sapiens, UniProt Q00537) (Q00537 whole entry): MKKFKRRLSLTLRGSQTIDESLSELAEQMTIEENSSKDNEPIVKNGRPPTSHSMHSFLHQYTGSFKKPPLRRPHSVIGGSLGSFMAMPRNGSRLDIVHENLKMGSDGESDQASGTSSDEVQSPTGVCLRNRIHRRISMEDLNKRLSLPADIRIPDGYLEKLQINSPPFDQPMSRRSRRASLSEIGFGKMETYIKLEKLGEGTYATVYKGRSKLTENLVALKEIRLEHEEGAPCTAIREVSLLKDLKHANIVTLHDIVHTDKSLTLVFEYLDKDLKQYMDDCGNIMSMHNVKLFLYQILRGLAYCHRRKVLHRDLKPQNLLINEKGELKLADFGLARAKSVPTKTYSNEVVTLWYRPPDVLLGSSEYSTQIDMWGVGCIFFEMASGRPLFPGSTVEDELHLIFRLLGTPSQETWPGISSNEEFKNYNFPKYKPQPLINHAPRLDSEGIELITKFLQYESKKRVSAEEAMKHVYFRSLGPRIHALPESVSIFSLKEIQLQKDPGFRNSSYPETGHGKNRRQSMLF
Source text: as §1, §2

[15] = molecular target: protein kinases (human kinome) (Homo sapiens, UniProt Q9NYV4)
Chain of protein kinases (human kinome) (Homo sapiens, UniProt Q9NYV4) (Q9NYV4 whole entry): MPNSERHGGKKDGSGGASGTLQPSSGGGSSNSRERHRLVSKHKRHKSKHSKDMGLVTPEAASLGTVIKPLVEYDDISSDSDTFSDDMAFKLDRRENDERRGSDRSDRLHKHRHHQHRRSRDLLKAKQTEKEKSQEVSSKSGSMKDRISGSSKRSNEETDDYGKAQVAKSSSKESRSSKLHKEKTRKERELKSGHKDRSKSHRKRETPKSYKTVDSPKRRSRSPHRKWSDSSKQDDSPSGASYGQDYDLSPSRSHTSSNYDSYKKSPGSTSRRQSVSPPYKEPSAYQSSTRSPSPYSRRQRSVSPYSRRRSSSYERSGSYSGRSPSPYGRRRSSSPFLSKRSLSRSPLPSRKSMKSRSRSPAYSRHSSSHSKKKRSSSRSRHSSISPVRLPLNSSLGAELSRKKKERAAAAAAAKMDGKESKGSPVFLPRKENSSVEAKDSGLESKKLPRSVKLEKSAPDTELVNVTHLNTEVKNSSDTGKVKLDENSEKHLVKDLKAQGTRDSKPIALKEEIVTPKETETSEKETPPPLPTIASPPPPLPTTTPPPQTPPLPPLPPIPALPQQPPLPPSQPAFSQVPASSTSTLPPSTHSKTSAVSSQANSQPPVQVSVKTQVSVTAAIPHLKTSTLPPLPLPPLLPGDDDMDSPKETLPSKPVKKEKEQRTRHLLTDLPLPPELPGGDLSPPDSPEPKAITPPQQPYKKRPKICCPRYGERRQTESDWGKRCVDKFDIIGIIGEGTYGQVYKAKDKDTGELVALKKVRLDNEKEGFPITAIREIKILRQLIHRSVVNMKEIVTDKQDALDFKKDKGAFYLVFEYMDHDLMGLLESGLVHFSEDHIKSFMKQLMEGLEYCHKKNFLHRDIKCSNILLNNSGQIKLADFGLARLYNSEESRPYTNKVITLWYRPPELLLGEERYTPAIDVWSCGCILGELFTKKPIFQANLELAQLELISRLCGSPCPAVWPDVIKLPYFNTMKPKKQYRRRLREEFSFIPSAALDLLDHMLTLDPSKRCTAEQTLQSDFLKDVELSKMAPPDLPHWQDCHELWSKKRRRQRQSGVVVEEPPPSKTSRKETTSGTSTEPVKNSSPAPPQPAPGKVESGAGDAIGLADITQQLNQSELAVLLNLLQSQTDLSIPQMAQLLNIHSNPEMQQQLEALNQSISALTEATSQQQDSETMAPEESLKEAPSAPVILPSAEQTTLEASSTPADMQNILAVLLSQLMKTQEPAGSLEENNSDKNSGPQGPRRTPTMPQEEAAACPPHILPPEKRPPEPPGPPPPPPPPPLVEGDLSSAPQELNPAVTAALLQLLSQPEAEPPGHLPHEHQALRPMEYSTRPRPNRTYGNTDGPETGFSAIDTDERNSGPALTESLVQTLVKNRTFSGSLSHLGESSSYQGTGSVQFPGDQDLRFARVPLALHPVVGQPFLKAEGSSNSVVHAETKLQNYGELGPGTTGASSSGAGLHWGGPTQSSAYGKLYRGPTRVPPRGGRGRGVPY
Source text: as §1, §2

[16] = molecular target: protein kinases (human kinome) (Homo sapiens, UniProt P30291); conditions: experiment wp016
Source text: as §1, §2

[17] = molecular target: protein kinases (human kinome) (Homo sapiens, UniProt P51451)
Source text: as §1, §2

[18] = molecular target: protein kinases (human kinome) (Homo sapiens, UniProt P53671); conditions: experiment wp016
Source text: as §1, §2

[19] = molecular target: T2, protein kinases (human kinome) (Homo sapiens, UniProt Q08881); conditions: experiment wp016
T2 sequence (Q08881 1-620): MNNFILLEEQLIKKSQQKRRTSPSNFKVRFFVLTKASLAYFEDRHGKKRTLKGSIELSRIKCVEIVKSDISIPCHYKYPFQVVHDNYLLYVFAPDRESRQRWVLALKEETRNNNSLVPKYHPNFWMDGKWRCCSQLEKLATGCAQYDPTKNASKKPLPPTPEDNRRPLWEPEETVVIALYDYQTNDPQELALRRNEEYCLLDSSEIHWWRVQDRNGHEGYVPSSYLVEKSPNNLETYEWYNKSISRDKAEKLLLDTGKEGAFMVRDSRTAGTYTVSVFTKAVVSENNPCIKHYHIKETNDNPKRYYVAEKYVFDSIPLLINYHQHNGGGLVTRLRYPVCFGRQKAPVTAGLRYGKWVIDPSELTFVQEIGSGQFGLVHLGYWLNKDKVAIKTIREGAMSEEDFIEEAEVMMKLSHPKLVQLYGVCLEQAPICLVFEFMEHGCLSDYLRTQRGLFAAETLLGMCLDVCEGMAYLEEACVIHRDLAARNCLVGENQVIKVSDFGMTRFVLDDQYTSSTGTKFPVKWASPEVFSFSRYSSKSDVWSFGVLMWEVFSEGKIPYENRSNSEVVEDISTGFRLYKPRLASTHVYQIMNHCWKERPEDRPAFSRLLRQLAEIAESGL
Source text: as §1, §2

[20] = molecular target: protein kinases (human kinome) (Homo sapiens, UniProt Q14289)
Source text: as §1, §2

[21] = experiment wp146, direction of change down
[22] = experiment wp016, direction of change down

## N#CCc1ccc(Nc2nc(NCCCNC(=O)CCCCCCNC(=O)COc3cccc4c3C(=O)N(C3CCC(=O)NC3=O)C4=O)cc(Nc3cc(C4CC4)n[nH]3)n2)cc1 (centres unmarked) [SB1.G.190]
[1]; experiment wp056
  logFC AURKA (O14965): −0.843
[2]
  logFC: −0.8894
  logFC GSK3A: −0.8894
[3]; AAK1 (Q2M218-1), experiment wp056, down
  logFC AAK1: −1.489
[3]; AAK1, accession Q2M218-1, experiment wp056, direction of change down
  logFC AAK1: −1.489
[4]
  logFC: −0.3508
  logFC BMP2K: −0.3508
[5]; Accession P49841-2, direction down
  logFC GSK3B: −0.631
[5]; GSK3B P49841-2
  logFC GSK3B: −0.631

## Nc1ncc(-c2ccc(S(=O)(=O)N(CCCNC(=O)CCOCCOCCOCCOCCOCCNc3cccc4c3C(=O)N(C3CCC(=O)NC3=O)C4=O)C3CC3)cc2)cc1-c1ccc2c(c1)CCNC2=O (centres unmarked) [WH.10414.099]
[6]; Accession Q8TDR2, direction down
  logFC STK35: −0.8902
[6]; STK35 (Q8TDR2)
  logFC STK35: −0.8902
[5]; Accession P48730-2, direction down
  logFC CSNK1D: −0.6187
[5]; CSNK1D P48730-2
  logFC CSNK1D: −0.6187

## COc1cc(N2CCN(CCOCCOCCNC(=O)CNc3cccc4c3C(=O)N(C3CCC(=O)NC3=O)C4=O)CC2)ccc1Nc1ncc(Cl)c(Nc2ccccc2S(=O)(=O)C(C)C)n1 (centres unmarked) [TL13.12]
[1]; experiment wp011
  logFC AURKA (O14965): −0.5988
[7]; Experiment wp011
  logFC of FER (P16591-1): −0.8459
[7]; experiment wp011
  logFC of FER: −0.8459
[8]; Accession Q05397, direction down
  logFC PTK2: −1.365
[8]; PTK2 Q05397
  logFC PTK2: −1.365

## NC(=O)c1c(F)cccc1Nc1nc(NC2CCN(S(=O)(=O)CCNC(=O)CCCCCCCCOc3cccc4c3C(=O)N(C3CCC(=O)NC3=O)C4=O)CC2)ncc1Br (centres unmarked) [TMX.01.160]
[1]; experiment wp146
  logFC AURKA (O14965): −2.621
[9]
  logFC: −1.423
  logFC CDK1: −1.423
[10]; experiment wp146
  logFC CDK2 (P24941-1): −1.971
[10]; [21]
  logFC CDK2 (P24941-1): −1.971
[11]
  logFC: −3.32
  logFC MAPK9: −3.32
[12]
  logFC: −0.601
[12]; experiment wp146
  logFC CDK7: −0.601
[13]; experiment wp146
  logFC CDK5 (Q00535): −2.901
[13]; [21]
  logFC CDK5 (Q00535): −2.901
[14]; experiment wp146
  logFC of CDK17: −1.627
  logFC CDK17 (Q00537): −1.627
[15]; Accession Q9NYV4-1, experiment wp146
  logFC CDK12: −0.5118
[15]; CDK12 (Q9NYV4-1), experiment wp146
  logFC CDK12: −0.5118
[5]
  logFC: −1.181
[5]; Experiment wp146, direction down
  logFC MAPK8 (P45983-4): −2.112
[5]; MAPK8 P45983-4, experiment wp146
  logFC MAPK8: −2.112
[5]; RPS6KA1 (Q15418-2), experiment wp146
  logFC RPS6KA1: −0.4317
[5]; experiment wp146
  logFC CDK9 (P50750-2): −1.181
  logFC CDK16 (Q00536-2): −1.11
  logFC RPS6KA1 (Q15418-2): −0.4317

## CC(C)S(=O)(=O)c1ccccc1Nc1nc(Nc2ccc(N3CCN(CCOCCOCCOCCNC(=O)CNc4cccc5c4C(=O)N(C4CCC(=O)NC4=O)C5=O)CC3)cc2)ncc1Cl (centres unmarked) [SK.3.87]
[1]; experiment wp016
  logFC AURKA (O14965): −1.381
[7]; Experiment wp016
  logFC of FER (P16591-1): −1.97
[7]; experiment wp016
  logFC of FER: −1.97
[10]; experiment wp016
  logFC CDK2 (P24941-1): −0.3797
[10]; [22]
  logFC CDK2 (P24941-1): −0.3797
[16]
  logFC WEE1 (P30291-1): −0.9273
[12]
  logFC: −0.5325
[12]; experiment wp016
  logFC CDK7: −0.5325
[17]; BLK P51451, experiment wp016
  logFC of BLK: −0.9329
[17]; Experiment wp016, down
  logFC of BLK (P51451): −0.9329
[18]; LIMK2 (P53671), down
  logFC LIMK2: −0.378
[18]; LIMK2 P53671
  logFC of LIMK2: −0.378
[13]; Accession Q00535, experiment wp016
  logFC of CDK5: −0.5732
[13]; [22]
  logFC CDK5 (Q00535): −0.5732
[14]; experiment wp016
  logFC of CDK17: −0.6139
  logFC CDK17 (Q00537): −0.6139
[19]
  logFC ITK (Q08881): −1.868
[19]; direction of change down
  logFC ITK (Q08881): −1.868
[20]; PTK2B (Q14289-1) protein abundance, degrader vs DMSO, down
  logFC: −3.217
[20]; PTK2B, accession Q14289-1, experiment wp016, direction of change down
  logFC PTK2B: −3.217
[3]; AAK1 (Q2M218-1), experiment wp016, down
  logFC AAK1: −0.7307
[3]; AAK1, accession Q2M218-1, experiment wp016, direction of change down
  logFC AAK1: −0.7307
[15]; Accession Q9NYV4-1, experiment wp016
  logFC CDK12: −0.5073
[15]; CDK12 (Q9NYV4-1), experiment wp016
  logFC CDK12: −0.5073
[5]
  logFC: −0.4714
[5]; LCK, accession P06239-3, experiment wp016, direction of change down
  logFC LCK: −0.3484
[5]; experiment wp016
  logFC CDK9 (P50750-2): −0.4714
[5]; [22]
  logFC LCK (P06239-3): −0.3484
